# Measurements from PubChem BioAssay (NCI).
#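 Each compound was tested at five concentrations against cells in 96-well plates for 48 hours. GI50: concentration for 50% inhibition of growth. TGI marks complete inhibition of growth.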
# What was measured:
# Test in all cases: NCI-60 cell line screen, 48 h
# [1] = system: MDA-MB-231 breast
# [2] = system: SK-OV-3 ovarian
# [3] = system: MALME-3M melanoma
# [4] = system: SNB-19 CNS
# [5] = system: TK-10 renal
# [6] = system: K-562 leukemia
# [7] = system: SR leukemia
# [8] = system: RPMI-8226 leukemia
# [9] = system: DU-145 prostate
# [10] = system: SNB-75 CNS
# [11] = system: SK-MEL-28 melanoma
# [12] = system: SF-268 CNS
# [13] = system: SF-539 CNS
# [14] = system: NCI/ADR-RES ovarian
# [15] = system: SK-MEL-2 melanoma
# [16] = system: HS 578T breast
# [17] = system: NCI-H460 lung
# [18] = system: SW-620 colon
# [19] = system: BT-549 breast
# [20] = system: 786-0 renal
# [21] = system: COLO 205 colon
# [22] = system: MOLT-4 leukemia
# [23] = system: OVCAR-5 ovarian
# [24] = system: OVCAR-3 ovarian
# [25] = system: SF-295 CNS
# [26] = system: SN12C renal
# [27] = system: CCRF-CEM leukemia
# [28] = system: M14 melanoma
# [29] = system: HOP-62 NSCLC
# [30] = system: HCT-116 colon
# [31] = system: LOX IMVI melanoma
# [32] = system: A549 NSCLC
# [33] = system: HT29 colon
# [34] = system: NCI-H23 lung
# [35] = system: RXF 393 renal
# [36] = system: HCT-15 colon
# [37] = system: HCC-2998 colon
# [38] = system: NCI-H226 lung
# [39] = system: ACHN renal
# [40] = system: OVCAR-8 ovarian
# [41] = system: OVCAR-4 ovarian
# [42] = system: KM12 colon
# [43] = system: A498 renal
# [44] = system: HOP-92 NSCLC
# [45] = system: NCI-H522 lung
# [46] = system: PC-3 prostate
# [47] = system: IGROV1 ovarian
# [48] = system: MCF7 breast
# [49] = system: UACC-62 melanoma
# [50] = system: MDA-MB-435
# [51] = system: UO-31 renal
# [52] = system: HL-60(TB) leukemia
# [53] = system: SK-MEL-5 melanoma
# [54] = system: CAKI-1 renal
# [55] = system: U251 CNS
# [56] = system: T-47D breast
# [57] = system: UACC-257 melanoma
smiles,measurement,setting,value
Cc1cc(C)c(C[N+](C)(C)C)c(C)c1C,GI50,[1],471 nM
same,TGI,[1],25800 nM
same,GI50,[2],499 nM
same,TGI,[2],11200 nM
same,GI50,[3],594 nM
same,TGI,[3],32200 nM
same,GI50,[4],351 nM
same,TGI,[4],> 64500 nM
same,GI50,[5],528 nM
same,TGI,[5],12100 nM
same,GI50,[6],416 nM
same,TGI,[6],> 100000 nM
same,GI50,[7],821 nM
same,TGI,[7],> 41100 nM
same,GI50,[8],588 nM
same,TGI,[8],15900 nM
same,GI50,[9],347 nM
same,TGI,[9],11400 nM
same,GI50,[10],402 nM
same,TGI,[10],11500 nM
same,GI50,[11],365 nM
same,TGI,[11],23500 nM
same,GI50,[12],364 nM
same,TGI,[12],10000 nM
same,GI50,[13],292 nM
same,TGI,[13],4860 nM
same,GI50,[14],475 nM
same,TGI,[14],16300 nM
same,GI50,[15],654 nM
same,TGI,[15],5040 nM
same,GI50,[16],338 nM
same,TGI,[16],9940 nM
same,GI50,[17],367 nM
same,TGI,[17],> 100000 nM
same,GI50,[18],320 nM
same,TGI,[18],> 100000 nM
same,GI50,[19],619 nM
same,TGI,[19],7360 nM
same,GI50,[20],323 nM
same,TGI,[20],13200 nM
same,GI50,[21],236 nM
same,TGI,[21],1850 nM
same,GI50,[22],349 nM
same,TGI,[22],> 52900 nM
same,GI50,[23],480 nM
same,TGI,[23],> 62100 nM
same,GI50,[24],638 nM
same,TGI,[24],15300 nM
same,GI50,[25],255 nM
same,TGI,[25],7250 nM
same,GI50,[26],212 nM
same,TGI,[26],23400 nM
same,GI50,[27],201 nM
same,TGI,[27],> 67500 nM
same,GI50,[28],374 nM
same,TGI,[28],11100 nM
same,GI50,[29],323 nM
same,TGI,[29],7590 nM
same,GI50,[30],320 nM
same,TGI,[30],24800 nM
same,GI50,[31],306 nM
same,TGI,[31],9130 nM
same,GI50,[32],281 nM
same,TGI,[32],39100 nM
same,GI50,[33],388 nM
same,TGI,[33],17400 nM
same,GI50,[34],395 nM
same,TGI,[34],12300 nM
same,GI50,[35],249 nM
same,TGI,[35],3430 nM
same,GI50,[36],313 nM
same,TGI,[36],19400 nM
same,GI50,[37],521 nM
same,TGI,[37],12400 nM
same,GI50,[38],565 nM
same,TGI,[38],11900 nM
same,GI50,[39],173 nM
same,TGI,[39],> 100000 nM
same,GI50,[40],328 nM
same,TGI,[40],> 41600 nM
same,GI50,[41],762 nM
same,TGI,[41],> 27100 nM
same,GI50,[42],330 nM
same,TGI,[42],24200 nM
same,GI50,[43],729 nM
same,TGI,[43],8660 nM
same,GI50,[44],285 nM
same,TGI,[44],13500 nM
same,GI50,[45],208 nM
same,TGI,[45],2610 nM
same,GI50,[46],351 nM
same,TGI,[46],> 67200 nM
same,GI50,[47],477 nM
same,TGI,[47],> 95700 nM
same,GI50,[48],289 nM
same,TGI,[48],15200 nM
same,GI50,[49],538 nM
same,TGI,[49],18900 nM
same,GI50,[50],328 nM
same,TGI,[50],12500 nM
same,GI50,[51],333 nM
same,TGI,[51],42800 nM
same,GI50,[52],496 nM
same,TGI,[52],> 24700 nM
same,GI50,[53],209 nM
same,TGI,[53],2820 nM
same,GI50,[54],281 nM
same,TGI,[54],> 26000 nM
same,GI50,[55],307 nM
same,TGI,[55],34700 nM
same,GI50,[56],292 nM
same,TGI,[56],9920 nM
same,GI50,[57],465 nM
same,TGI,[57],6690 nM
